Results taken from PubChem BioAssay (NCI).
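96-well plates; 48 h exposure; 5 concentrations. Endpoints by linear interpolation between flanking doses. Not reached: highest tested concentration assigned. GI50 is the concentration that inhibits growth by half. TGI marks complete inhibition of growth.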

What was measured:
Assay in all cases: NCI tumour cell line growth inhibition, 48 h
A498 renal = tested on: A498 renal
IGROV1 ovarian = tested on: IGROV1 ovarian
LOX IMVI melanoma = tested on: LOX IMVI melanoma
OVCAR-3 ovarian = tested on: OVCAR-3 ovarian
OVCAR-5 ovarian = tested on: OVCAR-5 ovarian
OVCAR-8 ovarian = tested on: OVCAR-8 ovarian
PC-3 prostate = tested on: PC-3 prostate
SF-539 CNS = tested on: SF-539 CNS
SNB-19 CNS = tested on: SNB-19 CNS
SW-620 colon = tested on: SW-620 colon
UACC-257 melanoma = tested on: UACC-257 melanoma
MOLT-4 leukemia = tested on: MOLT-4 leukemia

Row | SMILES | TGI (A498 renal) | TGI (IGROV1 ovarian) | TGI (LOX IMVI melanoma) | TGI (OVCAR-3 ovarian) | TGI (OVCAR-5 ovarian) | TGI (OVCAR-8 ovarian) | TGI (PC-3 prostate) | TGI (SF-539 CNS) | TGI (SNB-19 CNS) | TGI (SW-620 colon) | TGI (UACC-257 melanoma) | TGI (MOLT-4 leukemia) | GI50 (OVCAR-5 ovarian)
1 | Cc1ccc(OCC2OC(n3cnc4c(N(C)C)nc(Br)nc43)CC2Oc2ccc(C)cc2)cc1 (configuration not stated) | > 100 µM | > 100 µM | > 100 µM | > 100 µM | > 100 µM | > 100 µM | > 100 µM | > 100 µM | > 100 µM | > 100 µM | > 100 µM |  | 
2 | C=CCOCn1cnc2c(N)ncnc21 | > 100 µM | > 100 µM | > 100 µM |  | > 100 µM | > 100 µM | > 100 µM | > 100 µM | > 100 µM | > 100 µM | > 100 µM | > 100 µM | 
3 | CC(C(=O)ON1C(=O)CCC1=O)c1ccc(C(=O)c2ccccc2)s1 (configuration not stated) | > 100 µM | > 100 µM | > 100 µM | > 100 µM | > 100 µM | > 100 µM | > 100 µM |  | > 100 µM | > 100 µM | > 100 µM | > 100 µM | 
4 | COc1ccc(S(=O)(=O)O)cc1-n1nc(C(=O)Nc2ccccc2)n[n+]1-c1cc(S(=O)(=O)[O-])ccc1OC | > 100 µM | > 100 µM |  | > 100 µM | > 100 µM |  | > 100 µM | > 100 µM | > 100 µM | > 100 µM |  | > 100 µM | 
5 | O=C(Nc1nc2ccccc2n1Cc1ccccc1)NC12CC3CC(CC(C3)C1)C2 |  | > 100 µM | > 100 µM | > 100 µM | > 100 µM | > 100 µM |  | > 100 µM | > 100 µM | > 100 µM | > 100 µM | > 100 µM | 
6 | CCOC(=O)c1cc(C(=O)c2ccccc2)n2nc(-c3ccc(Cl)cc3)ccc12 | 49 µM | 38.8 µM | > 100 µM |  | 58 µM |  | 30.4 µM |  | 34.8 µM | > 100 µM | 97.1 µM | > 100 µM | 
7 | Cn1c(=O)c2c(nc3n(Cc4ccccc4)c(=O)c(NCCBr)cn23)n(C)c1=O | 91.1 µM | > 100 µM | > 100 µM | 66.7 µM | > 100 µM | 33.8 µM | > 100 µM |  | > 100 µM | > 100 µM | > 100 µM | > 100 µM | 
8 | CC(C)CCC[C@@H](C)[C@H]1CCC2C3CC=C4C[C@@H](Oc5c6ccccc6nc6ccccc56)CCC4C3CCC21 (some centres not stated) |  | > 50 µM | > 50 µM | > 50 µM | > 50 µM | > 50 µM | > 50 µM | > 50 µM | > 50 µM | > 50 µM | > 50 µM |  | 
9 | O=c1/c(=C\c2ccccc2)sc2n1C(c1ccccc1)C1(O)CCCCC1N=2 (configuration not stated) | > 100 µM | > 100 µM | > 100 µM | > 100 µM | > 100 µM | > 100 µM | > 100 µM |  | > 100 µM | > 100 µM | > 100 µM | > 100 µM | 
10 | CCCCCC(=O)N[C@@H](c1ccccc1)C(O)C(=O)OC1C[C@@]2(O)C(OC(=O)c3ccccc3)C3[C@](C)(C(=O)[C@H](O)C(=C1C)C2(C)C)C(OC1OCC(O)C(O)C1O)C[C@H]1OC[C@@]31OC(C)=O (some centres not stated) | > 100 µM | > 100 µM |  | 5.2 µM | > 100 µM | > 100 µM | > 86.4 µM | 5.68 µM | > 100 µM | > 100 µM | > 100 µM | > 100 µM | 
11 | CCOC(=O)Oc1cc2c(c(OC)c1OC)-c1ccc(SC)c(=O)cc1C(NC(=O)C(F)(F)F)CC2 (configuration not stated) | 0.554 µM | 0.149 µM |  |  | > 100 µM |  | > 100 µM |  | > 100 µM | > 100 µM | 37.9 µM |  | 18.2 µM
12 | O=C1CSc2nc3ccccc3n2/C=N\N1 | > 100 µM |  | > 100 µM |  | > 100 µM | > 100 µM | > 100 µM |  | > 100 µM | > 100 µM | > 100 µM | > 100 µM | 
13 | Cn1c(C(C#N)c2nc(Cl)ncc2Br)nc2ccccc21 (configuration not stated) | > 100 µM | > 100 µM | > 100 µM | > 100 µM | > 100 µM | > 100 µM |  | > 100 µM | > 100 µM | > 100 µM | > 100 µM | > 100 µM | 
14 | CCCCCC(=O)c1ccc2[nH]c3c(C)cc([N+](=O)[O-])c(C)c3c2c1 |  |  | > 100 µM | > 100 µM | > 100 µM | > 100 µM |  | > 100 µM | > 100 µM | > 100 µM | > 100 µM | > 100 µM | 
15 | CCC1C(c2cccc(OC)c2O)c2cc3c(cc2OC1N1CCCC1)OCO3 (configuration not stated) |  | 45.3 µM | 84.6 µM | 44.5 µM | 76.9 µM | 89.9 µM | 89.2 µM | 27 µM | 46.9 µM | 58.8 µM | 71.3 µM | 45 µM | 
